Results from patent US9309222B2, “Phenyl linked quinolinyl modulators of RORγt” (Janssen Pharmaceutica NV, priority 2012, dated 2016).
Several values for one entry are separate records, joined by “and”; a condition that tells them apart may be missing. Equal entries are not always repeated. Structures can show the parent of a compound that is named as a salt.

Columns and labels:
[1] = biological target: T1, human RORγt LBD (Homo sapiens, UniProt P51449); assay: RORγt reporter assay (GAL4-RORγt LBD luciferase in HEK293T cells); format: cell-based; settings: for IC50: 24 hours compound treatment; for inhibition at 6 µM: HEK-293T, read-out: RORγt reporter Assay, % inhibition @ 6 μM, HEK293T cells, 6 μM compound
T1 construct: expressed in transfected cells
T1 sequence (P51449 258-518): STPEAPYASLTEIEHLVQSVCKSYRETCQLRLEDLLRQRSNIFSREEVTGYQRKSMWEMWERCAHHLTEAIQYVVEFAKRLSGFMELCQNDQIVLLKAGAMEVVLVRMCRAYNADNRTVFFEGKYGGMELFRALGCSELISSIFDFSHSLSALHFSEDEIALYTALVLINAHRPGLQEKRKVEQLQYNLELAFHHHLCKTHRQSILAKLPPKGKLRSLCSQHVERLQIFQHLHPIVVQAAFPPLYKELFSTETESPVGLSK
In short: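 Read-out is the firefly-to-renilla luciferase ratio versus compound concentration, after 24 h compound exposure of cells in phenol-red-free DMEM/5% lipid-reduced FCS. Cells were HEK293T bulk-transfected with a GAL4-responsive firefly reporter (pGL4.31) and GAL4 DBD–wild-type human RORγt LBD fusion (pBIND, renilla as transfection/viability control).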

[2] = biological target: T2, human RORγt ligand binding domain (RORγt LBD) (Homo sapiens, UniProt P51449); assay: RORγt ThermoFluor assay (thermal shift, ligand binding affinity); settings: estimated from concentration response of thermal shift
T2 construct: His-tag (N); TurboTEV protease cleavage site (ENLYFQG) (N); made in house; host or cells: E. coli (pHIS1, modified pET vector)
T2 sequence (P51449 with tags, fused parts or gaps): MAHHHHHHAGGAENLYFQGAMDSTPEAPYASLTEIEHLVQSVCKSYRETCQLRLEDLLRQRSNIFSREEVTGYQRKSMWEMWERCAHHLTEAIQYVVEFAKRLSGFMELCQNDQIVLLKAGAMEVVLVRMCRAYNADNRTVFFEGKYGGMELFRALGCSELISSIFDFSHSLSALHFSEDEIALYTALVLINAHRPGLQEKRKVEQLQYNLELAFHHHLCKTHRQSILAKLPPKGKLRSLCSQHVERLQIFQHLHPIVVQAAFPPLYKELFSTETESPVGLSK
In short: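 Thermal shift of 0.065 mg/mL RORγt with 60 μM 1,8-ANS in 100 mM Hepes pH 7.0, 10 mM NaCl, 2.5 mM GSH, 0.002% Tween-20. Compounds in 1:2 series from 10 mM DMSO stock. Dye fluorescence (500 nm emission) tracked versus temperature; ΔTm used to derive KD.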

[3] = tested on: IL-17 production by CD4 T cells; assay: Human Th17 assay (IL-17 production by CD4 T cells under Th17 differentiation conditions); format: cell-based; settings: IL-17 in supernatant after 3 days
In short: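 Primary CD4+ T cells from healthy-donor PBMC, preincubated 1 h with titrated compound (0.2% DMSO), then activated with anti-CD3/CD28 beads plus anti-IL4, anti-IFNγ, IL1β, IL23, IL6, TGFβ and IL2.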

| SMILES | IC50 ([1]; HEK293T cells) | inhibition at 6 µM [1] | Kd [2] | IC50 ([3]; Homo sapiens, CD4+ T, 72 h) | RORγt reporter Assay, % inhibition @ 6 μM ([1]; HEK293T cells, 6 μM compound, 6 µM) | IC50 [3] |
| --- | --- | --- | --- | --- | --- | --- |
| COc1ccc(C(O)(c2cccnc2)c2ccc3nc(N(C)C)c(-c4ccccc4)c(Cl)c3c2)cc1 (centres unmarked) [Example 62, [4-Chloro-2-(dimethylamino)-3-phenylquinolin-6-yl](4-methoxyphenyl)pyridin-3-ylmethanol•TFA] | 0.25 µM | 98% | 0.42 µM | 0.7 µM | – | – |
| CN(C)c1nc2ccc(C(O)(c3ccncc3)c3ccncc3)cc2c(Cl)c1-c1ccccc1 [Example 37, [4-Chloro-2-(dimethylamino)-3-phenylquinolin-6-yl](dipyridin-4-yl)methanol•TFA] | 0.19 µM | 91% | 0.2 µM | ~1 µM | – | – |
| Cn1cncc1C(O)(c1ccc(Cl)cc1)c1cc2c(Cl)c(-c3ccccc3)c(Cl)nc2cc1F (centres unmarked) [Example 161, (4-Chlorophenyl)(2,4-dichloro-7-fluoro-3-phenylquinolin-6-yl)(1-methyl-1H-imidazol-5-yl)methanol•TFA] | 0.17 µM | 104% | 0.078 µM | 0.36 µM | – | – |
| CN(C)c1nc2ccc(C(O)(c3ccc(Cl)cc3)c3cccnc3)cc2c(Cl)c1-c1ccccc1 (centres unmarked) [Example 32, [4-Chloro-2-(dimethylamino)-3-phenylquinolin-6-yl](4-chlorophenyl)pyridin-3-ylmethanol•TFA] | 0.094 µM | 97% | 0.33 µM | 0.86 µM | – | – |
| OC(c1ccccc1)(c1cccnc1)c1ccc2nc(Cl)c(-c3ccccc3Cl)c(Cl)c2c1 (centres unmarked) [Example 6, (2,4-Dichloro-3-(2-chlorophenyl)quinolin-6-yl)(phenyl)(pyridin-3-yl)methanol] | 0.24 µM | 90% | 0.074 µM | ~6 µM | – | – |
| Cc1nc(C(O)(c2ccc3nc(Cl)c(-c4ccccc4)c(Cl)c3c2)c2cncn2C)cs1 (centres unmarked) [Example 140, (2,4-Dichloro-3-phenylquinolin-6-yl)(1-methyl-1H-imidazol-5-yl)(2-methylthiazol-4-yl)methanol] | 0.32 µM | 105% | 0.56 µM | 1.8 µM | – | – |

Now those with a lower Kd [2], led by results:

| IC50 ([1]; HEK293T cells) | inhibition at 6 µM [1] | Kd [2] | IC50 ([3]; Homo sapiens, CD4+ T, 72 h) | RORγt reporter Assay, % inhibition @ 6 μM ([1]; HEK293T cells, 6 μM compound, 6 µM) | IC50 [3] | SMILES |
| --- | --- | --- | --- | --- | --- | --- |
| 0.018 µM | 98% | 0.0012 µM | 0.026 µM | – | – | Cn1cncc1C(O)(c1ccncc1)c1ccc2nc(C(F)(F)F)c(-c3ccccc3)c(C(F)(F)F)c2c1 (centres unmarked) [Example 164, (1-Methyl-1H-imidazol-5-yl)(3-phenyl-2,4-bis(trifluoromethyl)quinolin-6-yl)(pyridin-4-yl)methanol•TFA] |
| 0.062 µM | 99% | 0.027 µM | 0.12 µM | – | – | CC(=O)N1CCC(C(O)(c2ccc3nc(C(F)(F)F)c(-c4ccccc4)c(C(F)(F)F)c3c2)c2cncn2C)CC1 (single isomer, unassigned) [Example 181b, 1-(4-(Hydroxy(1-methyl-1H-imidazol-5-yl)(3-phenyl-2,4-bis(trifluoromethyl)quinolin-6-yl)methyl)piperidin-1-yl)ethanone] |
| 0.037 µM | 100% | 0.0096 µM | 0.068 µM | – | – | CCOc1nc2ccc(C(O)(c3ccncc3)c3cncn3C)cc2c(Cl)c1-c1ccccc1 (centres unmarked) [Example 88, (4-Chloro-2-ethoxy-3-phenylquinolin-6-yl)(1-methyl-1H-imidazol-5-yl)pyridin-4-ylmethanol•TFA] |
| 0.047 µM and < 0.05 µM | 100% | 0.033 µM | 0.14 µM | – | – | CN(C)c1nc2ccc(C(O)(c3cccnc3)c3cncn3C)cc2c(Cl)c1-c1ccccc1 (centres unmarked) [Example 34, [4-Chloro-2-(dimethylamino)-3-phenylquinolin-6-yl](1-methyl-1H-imidazol-5-yl)pyridin-3-ylmethanol•TFA] |
| 0.5 µM | 98% | 0.023 µM | > 6 µM | – | – | CC(=O)N1CCC(C(O)(c2cccnc2)c2ccc3nc(Cl)c(-c4ccccc4)c(Cl)c3c2)CC1 (centres unmarked) [Example 95, (1-Acetylpiperidin-4-yl)(2,4-dichloro-3-phenylquinolin-6-yl)pyridin-3-ylmethanol•TFA] |
| 0.072 µM | 96% | 0.0081 µM | 0.066 µM | – | – | CC(=O)N1CCC(C(O)(c2ccccc2)c2ccc3nc(C(F)(F)F)c(-c4ccccc4)c(C(F)(F)F)c3c2)CC1 (racemic) [Example 169a, 1-(4-(Hydroxy(phenyl)(3-phenyl-2,4-bis(trifluoromethyl)quinolin-6-yl)methyl)piperidin-1-yl)ethanone] |
| 0.053 µM | – | 0.023 µM | – | 105% | 0.16 µM | CC(=O)N1CCC(C(O)(c2ccc3nc(C(F)(F)F)c(-c4ccccc4)c(C(F)(F)F)c3c2)c2cncn2C)CC1 (single isomer, unassigned) [Example 181c, 1-(4-(Hydroxy(1-methyl-1H-imidazol-5-yl)(3-phenyl-2,4-bis(trifluoromethyl)quinolin-6-yl)methyl)piperidin-1-yl)ethanone] |
| 0.039 µM | 100% | 0.03 µM | 0.043 µM | – | – | N#Cc1ccc(C(O)(c2cccc(Cl)c2)c2ccc3nc(C#N)c(-c4ccccc4)c(C#N)c3c2)cn1 (centres unmarked) [Example 104, 6-[(3-Chlorophenyl)(6-cyanopyridin-3-yl)hydroxymethyl]-3-phenylquinoline-2,4-dicarbonitrile•TFA] |
